Values of other authors as cited in patent publication EP1954843B1, “LEACHING PROCESS IN THE PRESENCE OF HY[…] FOR THE RECOVERY OF A VALUE METAL FROM AN ORE” (Anglo Operations Limited, priority 2005, dated 2007).

Conditions: at 80°C

SMILES: [Cl-].[Cl-].[Zn+2] [zinc chloride]
- soluble to the extent of: ca. 84.4 g/100g saturated solution
